# Results published in patent US20220128542A1, “TREATMENT EFFICIENCY EVALUATION” (TX MEDIC AB, priority 2019, published 2022).
# Test system: brain of rats subjected to closed-head diffuse severe TBI (sTBI)
# Assay: HPLC of free amino acids and amino group containing compounds in brain, dose study after sTBI (Example 3)
# Format: in vivo, rat
# Text: Male Wistar rats (n=160) of 300-350 g body weight were used in this study.
# 1994, 80: 291-300. This model causes diffuse axonal injury and it is able to reproduce the physical and mechanical characteristics of the diffuse TBI in humans.
# Rats were placed prone on a bed of specific polyurethane foam inserted in a special container. This foam dissipates the major part of the potential energy (deriving from the mechanical forces) and prevents any rebound of the animal after the impact that could produce spinal damages.
# These time points are coincident with the worst biochemical derangement (2 days) or, in the case of a mildly injured brain, with a full metabolic recovery (7 days).
# The drug treatment consisted in a subcutaneous injection of 0.5 ml of LMW-DS (Tikomed) and administered at 3 different concentrations (1, 5 and 15 mg/kg body weight), according to the schematic protocol described below.
# Sham-operated animals underwent the same procedure of anesthesia but TBI and were used as the control group.
# Rats used in this study were divided into 4 groups in order to carry out a study on the efficacy of three different concentrations of LMW-DS at two different times post TBI. As subsequently specified, in each group there were animals subjected to a specific treatment for metabolic analyses and other animals intended to histo-morphological studies, according to the procedures described below.
# Rats subjected to sTBI and receiving a single administration of LMW-DS after 30 minutes post-TBI, with sacrifice at 2 days post-TBI. Animals were divided in the following subgroups:
# Rats subjected to sTBI and receiving a single administration of LMW-DS after 30 minutes post-TBI, with sacrifice at 7 days post-TBI. Animals were divided in the following subgroups:
# Rats (n=12) subjected to sTBI and receiving repeated administrations of the maximal dose of LMW-DS (15 mg/kg b.w.) after 30 minutes, 3 days and 5 days post-TBI, with sacrifice at 7 days post-TBI. Four additional rats were used for the histo-morphological studies. Total rats in this group: n=16
# To minimize metabolite loss, an in vivo craniectomy was performed in all animals during anesthesia. The rat skull was carefully removed, the brain was exposed, sharply cut along the sagittal fissure and the two hemispheres were separated. The hemispheres dedicated to biochemical analyses were freeze-clamped by aluminum tongues pre-cooled in liquid nitrogen and then immersed in liquid nitrogen. The freeze-clamping procedure was introduced to accelerate freezing of the tissue, thus minimizing potential metabolite loss.
# Tissue homogenization for metabolite analyses was effected as described below. After the wet weight (w.w.) determination, the frozen hemispheres were placed into 7 ml of ice-cold, nitrogen-saturated, precipitating solution (1:10 w/v) composed by CH3CN+10 mM KH2PO4, pH 7.40, (3:1; v:v), and the homogenization was performed using an Ultra-Turrax homogenizer set at 24,000 rpm/min (Janke & Kunkel, Staufen, Germany). After centrifugation at 20,690×g, for 10 min at 4° C., the clear supernatants were saved, pellets were supplemented with an aliquot of 10 mM KH2PO4 and homogenized again as described above and saved overnight at −20° C. in order to obtain a complete recovery of aqueous phase from tissue. A second centrifugation was performed (20,690×g, for 10 min at 4° C.) and supernatants combined with those previously obtained were extracted by vigorous agitation with a double volume of HPLC-grade CHCl3 and centrifuged as above.
# [1] = rats 2 days post-TBI, single 1 mg/kg b.w. 30 min after trauma
# [2] = rats 2 days post-TBI, single 5 mg/kg b.w. 30 min after trauma
# [3] = rats 2 days post-TBI, single 15 mg/kg b.w. 30 min after trauma
# [4] = rats 7 days post-sTBI, repeated 15 mg/kg b.w.
# [5] = rats 7 days post-sTBI, single 1 mg/kg b.w.
# [6] = rats 7 days post-sTBI, single 5 mg/kg b.w.
# [7] = rats 7 days post-sTBI, single 15 mg/kg b.w.
substance,measurement,setting,value
sodium salt of dextran sulfate [LMW-DS],isoleucine (ILE),2 days post-TBI,restored
same,osmolyte and aromatic free amino acids,2 days post-TBI,No remarkable effects
same,methionine,"2 days post-TBI, any dose tested",Restoration
same,TAU concentrations,7 days after injury,normalized
same,L-Cystathionine (L-Cystat),"7 days post impact, highest dose, single or repeat",significant increase
same,GLU,"7 days post injury, 15 mg/kg b.w. single or repeat",normalization
same,ARG concentration in brain homogenate,[1],0.13 ± 0.03 nmol/g w.w.
same,ASN concentration in brain homogenate,[1],0.13 ± 0.02 µmol/g w.w.
same,ASP concentration in brain homogenate,[1],4.17 ± 0.99 nmol/g w.w.
same,GABA concentration in brain homogenate,[1],1.87 ± 0.17 µmol/g w.w.
same,GLN concentration in brain homogenate,[1],4.37 ± 0.59 µmol/g w.w.
same,GLU concentration in brain homogenate,[1],12.5 ± 0.91 µmol/g w.w.
same,GLY concentration in brain homogenate,[1],1.35 ± 0.26 nmol/g w.w.
same,LYS concentration in brain homogenate,[1],0.29 ± 0.11 µmol/g w.w.
same,MET concentration in brain homogenate,[1],0.04 ± 0.01 µmol/g w.w.
same,ORN concentration in brain homogenate,[1],0.02 ± 0.01 µmol/g w.w.
same,SAH concentration in brain homogenate,[1],0.07 ± 0.02 nmol/g w.w.
same,TAU concentration in brain homogenate,[1],4.98 ± 0.47 nmol/g w.w.
same,THR concentration in brain homogenate,[1],0.70 ± 0.15 nmol/g w.w.
same,TRP concentration in brain homogenate,[1],0.02 ± 0.01 µmol/g w.w.
same,TYR concentration in brain homogenate,[1],0.18 ± 0.03 nmol/g w.w.
same,VAL concentration in brain homogenate,[1],0.07 ± 0.03 µmol/g w.w.
same,ARG concentration in brain homogenate,[2],0.13 ± 0.03 nmol/g w.w.
same,ASP concentration in brain homogenate,[2],4.15 ± 0.95 nmol/g w.w.
same,GABA concentration in brain homogenate,[2],1.99 ± 0.18 µmol/g w.w.
same,GLN concentration in brain homogenate,[2],4.55 ± 0.44 µmol/g w.w.
same,GLY concentration in brain homogenate,[2],1.43 ± 0.28 nmol/g w.w.
same,L-Cystat concentration in brain homogenate,[2],0.31 ± 0.06 µmol/g w.w.
same,LYS concentration in brain homogenate,[2],0.37 ± 0.14 µmol/g w.w.
same,ORN concentration in brain homogenate,[2],0.01 ± 0.01 µmol/g w.w.
same,SAH concentration in brain homogenate,[2],0.07 ± 0.02 nmol/g w.w.
same,TAU concentration in brain homogenate,[2],5.15 ± 0.49 nmol/g w.w.
same,THR concentration in brain homogenate,[2],0.77 ± 0.17 nmol/g w.w.
same,TRP concentration in brain homogenate,[2],0.03 ± 0.01 µmol/g w.w.
same,TYR concentration in brain homogenate,[2],0.20 ± 0.03 nmol/g w.w.
same,VAL concentration in brain homogenate,[2],0.08 ± 0.03 µmol/g w.w.
same,ARG concentration in brain homogenate,[3],0.16 ± 0.04 nmol/g w.w.
same,ASP concentration in brain homogenate,[3],3.05 ± 0.42 nmol/g w.w.
same,GLN concentration in brain homogenate,[3],4.21 ± 0.51 µmol/g w.w.
same,GLY concentration in brain homogenate,[3],1.18 ± 0.23 nmol/g w.w.
same,LEU concentration in brain homogenate,[3],0.04 ± 0.01 µmol/g w.w.
same,LYS concentration in brain homogenate,[3],0.32 ± 0.12 µmol/g w.w.
same,MET concentration in brain homogenate,[3],0.03 ± 0.01 µmol/g w.w.
same,ORN concentration in brain homogenate,[3],0.02 ± 0.01 µmol/g w.w.
same,SAH concentration in brain homogenate,[3],0.06 ± 0.02 nmol/g w.w.
same,TAU concentration in brain homogenate,[3],4.59 ± 0.43 nmol/g w.w.
same,THR concentration in brain homogenate,[3],0.61 ± 0.13 nmol/g w.w.
same,TYR concentration in brain homogenate,[3],0.17 ± 0.03 nmol/g w.w.
same,VAL concentration in brain homogenate,[3],0.06 ± 0.03 µmol/g w.w.
same,ALA concentration in brain homogenate,[4],0.47 ± 0.05 µmol/g w.w.
same,ASN concentration in brain homogenate,[4],0.1 ± 0.02 µmol/g w.w.
same,ASP concentration in brain homogenate,[4],2.42 ± 0.39 nmol/g w.w.
same,CITR concentration in brain homogenate,[4],0.03 ± 0.01 µmol/g w.w.
same,GABA concentration in brain homogenate,[4],1.38 ± 0.14 µmol/g w.w.
same,GLN concentration in brain homogenate,[4],3.88 ± 0.4 µmol/g w.w.
same,GLY concentration in brain homogenate,[4],0.78 ± 0.10 nmol/g w.w.
same,HYS concentration in brain homogenate,[4],0.06 ± 0.01 µmol/g w.w.
same,ILE concentration in brain homogenate,[4],0.03 ± 0.01 µmol/g w.w.
same,LEU concentration in brain homogenate,[4],0.04 ± 0.01 µmol/g w.w.
same,LYS concentration in brain homogenate,[4],0.23 ± 0.07 µmol/g w.w.
same,ORN concentration in brain homogenate,[4],0.02 ± 0.01 µmol/g w.w.
same,SAH concentration in brain homogenate,[4],0.04 ± 0.04 nmol/g w.w.
same,TAU concentration in brain homogenate,[4],3.47 ± 0.44 nmol/g w.w.
same,THR concentration in brain homogenate,[4],0.77 ± 0.14 nmol/g w.w.
same,TYR concentration in brain homogenate,[4],0.14 ± 0.02 nmol/g w.w.
same,VAL concentration in brain homogenate,[4],0.07 ± 0.01 µmol/g w.w.
same,ALA concentration in brain homogenate,[5],0.57 ± 0.06 µmol/g w.w.
same,ARG concentration in brain homogenate,[5],0.13 ± 0.02 nmol/g w.w.
same,ASN concentration in brain homogenate,[5],0.1 ± 0.02 µmol/g w.w.
same,ASP concentration in brain homogenate,[5],4.17 ± 0.67 nmol/g w.w.
same,CITR concentration in brain homogenate,[5],0.03 ± 0.01 µmol/g w.w.
same,GABA concentration in brain homogenate,[5],1.73 ± 0.18 µmol/g w.w.
same,GLN concentration in brain homogenate,[5],4.1 ± 0.42 µmol/g w.w.
same,GLU concentration in brain homogenate,[5],12.1 ± 1.02 µmol/g w.w.
same,GLY concentration in brain homogenate,[5],0.98 ± 0.20 nmol/g w.w.
same,HYS concentration in brain homogenate,[5],0.06 ± 0.01 µmol/g w.w.
same,L-Cystat concentration in brain homogenate,[5],0.24 ± 0.04 µmol/g w.w.
same,LYS concentration in brain homogenate,[5],0.19 ± 0.06 µmol/g w.w.
same,MET concentration in brain homogenate,[5],0.03 ± 0.01 µmol/g w.w.
same,ORN concentration in brain homogenate,[5],0.01 ± 0.01 µmol/g w.w.
same,SAH concentration in brain homogenate,[5],0.04 ± 0.01 nmol/g w.w.
same,SER concentration in brain homogenate,[5],0.92 ± 0.16 µmol/g w.w.
same,TAU concentration in brain homogenate,[5],4.02 ± 0.51 nmol/g w.w.
same,THR concentration in brain homogenate,[5],0.71 ± 0.12 nmol/g w.w.
same,TYR concentration in brain homogenate,[5],0.13 ± 0.02 nmol/g w.w.
same,VAL concentration in brain homogenate,[5],0.08 ± 0.01 µmol/g w.w.
same,ALA concentration in brain homogenate,[6],0.44 ± 0.05 µmol/g w.w.
same,ARG concentration in brain homogenate,[6],0.15 ± 0.02 nmol/g w.w.
same,ASN concentration in brain homogenate,[6],0.1 ± 0.02 µmol/g w.w.
same,ASP concentration in brain homogenate,[6],3.63 ± 0.59 nmol/g w.w.
same,CITR concentration in brain homogenate,[6],0.03 ± 0.01 µmol/g w.w.
same,GLN concentration in brain homogenate,[6],3.86 ± 0.4 µmol/g w.w.
same,GLU concentration in brain homogenate,[6],11.8 ± 0.99 µmol/g w.w.
same,GLY concentration in brain homogenate,[6],0.88 ± 0.15 nmol/g w.w.
same,HYS concentration in brain homogenate,[6],0.06 ± 0.01 µmol/g w.w.
same,L-Cystat concentration in brain homogenate,[6],0.26 ± 0.04 µmol/g w.w.
same,LYS concentration in brain homogenate,[6],0.21 ± 0.04 µmol/g w.w.
same,MET concentration in brain homogenate,[6],0.04 ± 0.01 µmol/g w.w.
same,TAU concentration in brain homogenate,[6],3.51 ± 0.44 nmol/g w.w.
same,THR concentration in brain homogenate,[6],0.71 ± 0.15 nmol/g w.w.
same,TRP concentration in brain homogenate,[6],0.02 ± 0.01 µmol/g w.w.
same,TYR concentration in brain homogenate,[6],0.13 ± 0.02 nmol/g w.w.
same,VAL concentration in brain homogenate,[6],0.08 ± 0.01 µmol/g w.w.
same,ALA concentration in brain homogenate,[7],0.38 ± 0.04 µmol/g w.w.
same,ARG concentration in brain homogenate,[7],0.14 ± 0.02 nmol/g w.w.
same,ASN concentration in brain homogenate,[7],0.1 ± 0.02 µmol/g w.w.
same,CITR concentration in brain homogenate,[7],0.03 ± 0.01 µmol/g w.w.
same,GABA concentration in brain homogenate,[7],1.43 ± 0.15 µmol/g w.w.
same,GLN concentration in brain homogenate,[7],3.73 ± 0.38 µmol/g w.w.
same,GLU concentration in brain homogenate,[7],10.2 ± 0.86 µmol/g w.w.
same,GLY concentration in brain homogenate,[7],0.78 ± 0.12 nmol/g w.w.
same,HYS concentration in brain homogenate,[7],0.06 ± 0.01 µmol/g w.w.
same,L-Cystat concentration in brain homogenate,[7],0.25 ± 0.04 µmol/g w.w.
same,LYS concentration in brain homogenate,[7],0.21 µmol/g w.w.
same,MET concentration in brain homogenate,[7],0.04 ± 0.01 µmol/g w.w.
same,SAH concentration in brain homogenate,[7],0.04 ± 0.01 nmol/g w.w.
same,SER concentration in brain homogenate,[7],0.76 ± 0.12 µmol/g w.w.
same,TAU concentration in brain homogenate,[7],3.38 ± 0.44 nmol/g w.w.
same,THR concentration in brain homogenate,[7],0.72 ± 0.14 nmol/g w.w.
same,TYR concentration in brain homogenate,[7],0.14 ± 0.02 nmol/g w.w.
